Test results as given in article PMC5181585, “UMAMIT14 is an amino acid exporter involved in phloem unloading in Arabidopsis roots” (Journal of Experimental Botany, 2016).

Molecular target: T1, UMAMIT18 (Arabidopsis thaliana, UniProt Q9LPF1)
T1 construct: gene At1g44800; cDNA in pDR196-Ws, expressed in yeast 22delta10alpha
T1 sequence (Q9LPF1 1-370): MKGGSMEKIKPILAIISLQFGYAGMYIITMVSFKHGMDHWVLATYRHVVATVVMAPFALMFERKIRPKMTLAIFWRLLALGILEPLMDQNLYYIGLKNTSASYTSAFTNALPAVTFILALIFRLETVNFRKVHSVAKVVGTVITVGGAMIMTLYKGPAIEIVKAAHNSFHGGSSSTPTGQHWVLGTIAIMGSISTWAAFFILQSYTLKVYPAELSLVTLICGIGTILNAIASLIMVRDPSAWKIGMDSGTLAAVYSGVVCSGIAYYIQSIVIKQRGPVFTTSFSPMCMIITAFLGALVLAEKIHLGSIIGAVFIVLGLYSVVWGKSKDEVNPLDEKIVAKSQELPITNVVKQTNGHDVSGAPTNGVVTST
Experiment: amino acid secretion into medium by yeast, UPLC
Assay type: cell-based
Conditions: export, 22 h growth in minimal medium, yeast 22delta10alpha

Compound | amino acid secretion into medium by yeast, UPLC (Gln peak not resolved from Arg) | amino acid secretion into medium by yeast, UPLC
NC(=O)CC[C@H](N)C(=O)O [Gln] | Gln, Val, and Ile represented a larger proportion of the secreted amino acids for UMAMIT18 | –
CC(C)[C@H](N)C(=O)O [Val] | – | Gln, Val, and Ile represented a larger proportion of the secreted amino acids for UMAMIT18
